From patent publication US10442758B2, “Zinc or Copper (II) salt and use thereof as a biocide” (LABORATORIYA BIO ZET, LLC, priority 2013, dated 2019)

What was measured:
Format in all cases: cell-based
[1] = system: E. coli No. 906; assay: Bactericidal activity: bacterial culture exposed in salt solution, neutralized, inoculated on solid nutrient medium; settings: time of exposure 30 min, concentration from 1.0 to 2.5%
Description: (§1) The determination is performed on E. coli No. 906 and S. aureus No. 1257 test strains being usually used to study the bactericidal activity of biocides as well as on clinical strains—P. aeruginosa and methicillin-resistant strain S. aureus—at salt concentrations from 0.5 to 2% and time of exposure from 5 to 60 min.
(§2) The same method as described in Example 9 is used to determine the bactericidal activity of ZMA against three of four strains studied in Example 9.

[2] = system: P. aeruginosa (clinical strain); assay: as above; settings: for Bactericidal activity: growth of P. aeruginosa: 1.0 % wt., CFU in 1 ml
Description: as §1, §2

[3] = system: S. aureus No. 1257; assay: as above; settings: for Bactericidal activity: growth of S. aureus test strain: CFU in 1 ml
Description: The determination is performed on E. coli No. 906 and S. aureus No. […]
as §2

[4] = system: E. coli No. 906, S. aureus No. 1257, P. aeruginosa, methicillin-resistant strain S. aureus; assay: Bactericidal activity, summary over the investigated strains
Description: as §1, §2

[5] = system: fungal spores; assay: Fungicidal activity according to GOST 30028.4-2006: resistance of treated material samples to fungal spores
[6] = test material paper impregnated with latex SKS 65 GP, additive content 0.5 % wt.
[7] = test material paper impregnated with petrolatum base, additive content 4.7 % wt.
[8] = test material polyvinyl chloride emulsion, additive content 0.5 % wt.

Row | Compound | bactericidal activity (in words) against E. coli No. 906 [1] | Bactericidal activity: growth of P. aeruginosa ([2]; exposure 30 min) [CFU] | bactericidal activity (in words) against P. aeruginosa ([2]; only at concentration from 2.5%) | Bactericidal activity: growth of S. aureus test strain ([3]; 2.5 % wt., exposure 30 min) [CFU] | Bactericidal activity: growth of S. aureus test strain ([3]; 5 % wt., exposure 5 min) [CFU] | bactericidal activity (in words) against S. aureus No. 1257 ([3]; only at concentration of 2.5% and time of exposure of 60 min) | bactericidal activity compared with the proposed salts ([4]; comparison of Table 3 with Table 2) | Tolerance time [5, 6] [days] | Tolerance time [5, 7] [days] | Tolerance time ([5]; test material polyvinyl chloride emulsion, additive content 5 % wt.) [days] | Tolerance time [5, 8] [days] | Bactericidal activity: growth of P. aeruginosa ([2]; exposure 5 min) [CFU] | Bactericidal activity: growth of S. aureus test strain ([3]; 1.0 % wt., exposure 15 min) [CFU] | bactericidal effect (in words) ([4]; concentration 1.0%, time of exposure from 30 min)
1 | C=C(C)C(=O)[O-].CC(=O)[O-].[Zn+2] [ZMA, zinc methacrylate-acetate] | stable bactericidal activity | >300 | not completely stable bactericidal activity | >300 | >300 | sub-bactericidal activity | substantially lower than that of the proposed salts | 12 | 16 | 22 | – | – | – | –
2 | C=CC(=O)[O-].O=C([O-])c1ccccc1.[Zn+2] [Zinc acrylate-benzoate] | – | – | – | – | – | – | – | – | – | – | 11 | – | – | –
3 | Zinc methacrylate-sulfosalicylate | – | – | – | – | – | – | – | 16 | 20 | – | 16 | 1 | >300 | stable bactericidal effect against three of four investigated strains
